The text below walks through data of ChEMBL document CHEMBL5543108, “Structure-based design and synthesis of BML284 derivatives: A novel class of colchicine-site noncovalent tubulin degradation agents” (Eur J Med Chem, 2024).

The subject of assay [1] is HeLa. The assay is described as follows: Antiproliferative activity against human HeLa cells assessed as reduction in cell viability measured after 72 hrs. Format: functional, cell-based.
Assay [2] has as its system K562. The assay is described as follows: Antiproliferative activity against human K562 cells assessed as reduction in cell viability measured after 72 hrs. Format: functional, cell-based. The settings on record: K562, 72 h.
Assay [3] concerns MOLM-13. The assay is described as follows: Antiproliferative activity against human MOLM-13 cells assessed as reduction in cell viability measured after 72 hrs. Format: functional, cell-based. Conditions: MOLM-13, 72 h.
In assay [4] the target is T1, Tubulin (Homo sapiens) (UniProt P68371+Q9H4B7+P0DPH7+P68366+Q13509+Q71U36+P04350+Q3ZCM7+P07437+P68363+Q9BQE3+Q6PEY2+Q13885+Q9BVA1+Q9BUF5). In words: Induction of tubulin degradation in human HeLa cells measured after 24 hrs by immunoblot analysis. The assay is classed as cell-based. The settings on record: dose <= 50.0 µM. For orientation: A western blot detects proteins with antibodies after separation by electrophoresis.

The target in assay [5] is T1, Tubulin (Homo sapiens). The assay is described as follows: Induction of tubulin degradation in human HeLa cells at 50 uM measured after 24 hrs by immunoblot analysis. Format: cell-based.
For assay [6], the system named is HCT-116. The assay is described as follows: cells. Conditions: Homo sapiens, HCT-116, 72 h.
Description: Antiproliferative activity against human HCT-116 cells assessed as reduction in cell viability measured after 72 hrs
Assay [7] concerns MCF7. The assay is described as follows: cells. Conditions: Homo sapiens, MCF7, 72 h.
Description: Antiproliferative activity against human MCF7 cells assessed as reduction in cell viability measured after 72 hrs
The subject of assay [8] is A2780/Taxol. The assay is described as follows: Antiproliferative activity against human A2780T cells assessed as reduction in cell viability measured after 72 hrs. The assay is classed as functional, cell-based.
The test system of assay [9] is A549/TR. In words: Antiproliferative activity against paclitaxel resistant human A549T cells assessed as reduction in cell viability measured after 72 hrs. The assay is classed as functional, cell-based.
Assay [10] relates to A2780S. The assay is described as follows: Antitumor activity against human A2780S cells xenografted in mouse model assessed as tumor growth inhibition at 30 mg/kg, ip administered every two days for 12 days relative to control. The assay is classed as functional. Conditions: 288 h, time 12 day, read-out: TGI. A general note: In xenograft studies the graft and the host belong to different species.

The subject of assay [11] is A2780/Taxol. The assay is described as follows: Antitumor activity against human A2780T cells xenografted in mouse model assessed as tumor growth inhibition at 30 mg/kg, ip administered every two days for 18 days relative to control. The assay is classed as functional. The settings on record: 432 h, time 18 day, read-out: TGI.
The subject of assay [12] is NCI/ADR-RES. In words: Antiproliferative activity against human MCF7ADR cells assessed as reduction in cell viability measured after 72 hrs. The assay is classed as functional, cell-based.

Where a name gives a salt, the structure may show the parent alone. Active and inactive are the calls of the source. The rule behind the calls is not given here.

As for `COc1cccc(-c2cc(NCc3ccc4c(c3)OCO4)ncn2)c1`, the IC50 in assay [1] turned out to be 30.8 µM; in [2], 8.63 µM; in assay [3], 12.5 µM; in [6], 15.8 µM; in [7], 22.8 µM. In addition, in assay [4], the Activity result was “Dose-Dependent Effect”. In [5], the outcome was Active.

As to `COc1cccc(-c2cc(NCc3ccccc3)nc(N)n2)c1`, the IC50 in assay [1] is 0.44 µM; in [2], 0.27 µM; in [3], 0.36 µM; in assay [6], 0.92 µM; in [7] it was 0.85 µM. For the same compound, in assay [4], the Activity result was “Dose-Dependent Effect”.

`CC(=O)O[C@H]1C(=O)[C@@]2(C)[C@H]([C@H](OC(=O)c3ccccc3)[C@]3(O)C[C@H](OC(=O)[C@H](O)[C@@H](NC(=O)c4ccccc4)c4ccccc4)C(C)=C1C3(C)C)[C@]1(OC(C)=O)CO[C@@H]1C[C@@H]2O` [PACLITAXEL]: the IC50 is 0.015 µM in [2]; 0.004 µM in assay [3]; 55.9 µM in assay [8]; 0.834 µM in assay [9]; 0.0315 µM in assay [7]. In addition, the inhibition in vivo at 30 mg/kg was found to be 74.6% in [10] and 23.2% in assay [11].

Consider `COc1cccc(-c2cc(N)nc(NCc3ccc4c(c3)OCO4)c2)c1`, for which the IC50 in assay [1] was 48.6 µM; in [2], 19.3 µM; in assay [3] it was 20.2 µM; in [6], 37.5 µM; in assay [7], 26.5 µM. In addition, the outcome in [4] and in [5] was inactive.

Take `COc1cccc2c1C(=O)c1c(O)c3c(c(O)c1C2=O)C[C@@](O)(C(=O)CO)C[C@@H]3O[C@H]1C[C@H](N)[C@H](O)[C@H](C)O1` [DOXORUBICIN HYDROCHLORIDE]: the concentration for half-maximal inhibition (IC50) in assay [12] came out at 8.63 µM.

`CCN(Cc1ccc2c(c1)OCO2)c1cc(-c2cccc(OC)c2)nc(N)n1`: the IC50 in assay [1] stood at 0.02 µM; in [2], 0.04 µM; in assay [3], 0.03 µM; in assay [6], 0.06 µM; in assay [7], 0.06 µM. For the same compound, the Activity entry in assay [4] was “Dose-Dependent Effect”.

Consider `Nc1nc(NCc2ccc3c(c2)OCO3)cc(-c2cccc3ccccc23)n1`, for which the half-maximal inhibitory concentration (IC50) in [1] is 0.5 µM; in assay [2] it was 0.25 µM; in [3], 0.22 µM; in [6], 0.77 µM; in [7], 0.96 µM.

As to `COc1cccc(-c2cc(NCc3ccc4c(c3)OCO4)nc(N)n2)c1`, the half-inhibitory concentration (IC50) in assay [1] came out at 0.09 µM; in [2], 0.1 µM; in assay [3] it was 0.19 µM; in [6] it was 0.52 µM; in [7], 0.69 µM.

On to `Nc1nc(NCc2ccc3c(c2)OCO3)cc(-c2ccccc2)n1`, for which the 50% inhibitory concentration (IC50) is 0.46 µM in assay [1]; 0.14 µM in assay [2]; 0.25 µM in assay [3]; 0.91 µM in [6]; 1.91 µM in assay [7]. The Activity entry in assay [4] is “Dose-Dependent Effect”.

As usually defined, the IC50 is the point on the concentration scale where inhibition reaches its midpoint.
